From the supplement of paper PMC10307832

What was measured:
Test in all cases: relative viability (nuclei count vs DMSO), 5 days (fraction); higher = more cells survive
[1] = compound: NC(=O)[C@@H](CCC(F)(F)F)N(Cc1ccc(-c2ncon2)cc1F)S(=O)(=O)c1ccc(Cl)cc1 [Avagacestat] + CC(C)C[C@H](NC(=O)[C@H](Cc1ccccc1)NC(=O)c1cnccn1)B(O)O [Bortezomib] (partner 0.002 µM)
Method in brief: (§1)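 Cells from lung cancer lines were seeded into 1536-well plates and, one day later, dosed by pin tool. Treatments were either a single drug or a fixed dose of an anchor drug with five library-drug doses (not always all listed) in √10 steps. After 5 days, nuclei were stained in a one-step fixation (final 0.05% Triton X-100, 1% formaldehyde, 1 ug/ml Hoechst) and counted on 4× images, and relative viability is the treated-to-vehicle nuclei ratio, as the median of duplicate plates.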

[2] = compound: NC(=O)[C@@H](CCC(F)(F)F)N(Cc1ccc(-c2ncon2)cc1F)S(=O)(=O)c1ccc(Cl)cc1 [Avagacestat] + Nc1ncn([C@H]2C[C@H](O)[C@@H](CO)O2)c(=O)n1 [Decitabine] (partner 2 µM)
Method in brief: as §1

[3] = compound: NC(=O)[C@@H](CCC(F)(F)F)N(Cc1ccc(-c2ncon2)cc1F)S(=O)(=O)c1ccc(Cl)cc1 [Avagacestat] + NC(=O)Nc1cc(-c2cccc(F)c2)sc1C(=O)N[C@H]1CCCNC1 [AZD7762] (partner 0.2 µM)
Method in brief: as §1

[4] = compound: NC(=O)[C@@H](CCC(F)(F)F)N(Cc1ccc(-c2ncon2)cc1F)S(=O)(=O)c1ccc(Cl)cc1 [Avagacestat] + CS(=O)(=O)CCNCc1ccc(-c2ccc3ncnc(Nc4ccc(OCc5cccc(F)c5)c(Cl)c4)c3c2)o1 [Lapatinib] (partner 2 µM)
Method in brief: as §1

| Cell Line | relative viability ([1]; first compound 0.08 µM) | relative viability ([1]; first compound 0.253 µM) | relative viability ([1]; first compound 0.8 µM) | relative viability ([1]; first compound 2.53 µM) | relative viability ([1]; first compound 8 µM) | relative viability ([2]; first compound 0.08 µM) | relative viability ([2]; first compound 0.253 µM) | relative viability ([2]; first compound 0.8 µM) | relative viability ([2]; first compound 2.53 µM) | relative viability ([2]; first compound 8 µM) | relative viability ([3]; first compound 0.08 µM) | relative viability ([3]; first compound 0.253 µM) | relative viability ([3]; first compound 0.8 µM) | relative viability ([3]; first compound 2.53 µM) | relative viability ([3]; first compound 8 µM) | relative viability ([4]; first compound 0.08 µM) | relative viability ([4]; first compound 0.253 µM) | relative viability ([4]; first compound 0.8 µM) | relative viability ([4]; first compound 2.53 µM) | relative viability ([4]; first compound 8 µM) |
| --- | --- | --- | --- | --- | --- | --- | --- | --- | --- | --- | --- | --- | --- | --- | --- | --- | --- | --- | --- | --- |
| HOP-62 | 0.783 | 0.819 | 0.727 | 0.513 | 0.709 | 0.211 | 0.229 | 0.194 | 0.221 | 0.218 | 0.811 | 0.714 | 0.62 | 0.53 | 0.47 | 1.02 | 0.943 | 0.983 | 0.996 | 1.01 |
| LC-2-ad | 1.16 | 1.12 | 1.04 | 0.934 | 0.941 | 0.837 | 0.839 | 0.867 | 0.833 | 0.776 | 0.947 | 0.927 | 0.843 | 0.761 | 0.616 | 1.04 | 1.16 | 1.03 | 0.996 | 0.867 |
| LCLC-97TM1 | 0.98 | 0.625 | 1.38 | 0.786 | 0.482 | 0.25 | 0.214 | 0.229 | 0.217 | 0.203 | 0.165 | 0.397 | 0.205 | 0.264 | 0.272 | 0.771 | 1.29 | 0.977 | 0.703 | 0.86 |
| LCLC-103H | 1.01 | 1.07 | 1.03 | 1.07 | 1.04 | 0.753 | 0.76 | 0.776 | 0.561 | 0.583 | 0.815 | 0.759 | 0.837 | 0.68 | 0.688 |  |  |  |  |  |
| LOU-NH91 | 0.541 | 0.509 | 0.51 | 0.478 | 0.485 | 0.868 | 0.812 | 0.84 | 0.807 | 0.79 | 0.828 | 0.838 | 0.864 | 0.673 | 0.736 | 0.816 | 0.788 | 0.831 | 0.692 | 0.776 |
| LU99A | 1.28 | 1.13 | 0.938 | 1.1 | 1.19 | 0.835 | 0.98 | 0.964 | 0.772 | 0.816 | 0.422 | 0.407 | 0.314 | 0.341 | 0.329 | 1.01 | 1.2 | 1.25 | 1.06 | 1.1 |
| LXF-289 | 1.04 | 1.1 | 0.972 | 0.99 | 0.911 | 0.359 | 0.368 | 0.408 | 0.347 | 0.331 | 1.13 | 1.08 | 1.09 | 1.16 | 0.971 | 0.895 | 0.921 | 0.886 | 0.892 | 0.814 |
| NCI-H23 | 1.19 | 1.42 | 1.12 | 1 | 0.822 | 0.416 | 0.316 | 0.308 | 0.328 | 0.272 | 0.227 | 0.229 | 0.219 | 0.282 | 0.225 | 1.61 | 1.29 | 1.17 | 1.05 | 1.32 |
| NCI-H322M | 1.27 | 1.23 | 1.4 | 1.05 | 1.17 | 0.736 | 0.626 | 0.729 | 0.629 | 0.611 | 0.609 | 0.542 | 0.496 | 0.503 | 0.588 | 0.556 | 0.555 | 0.601 | 0.504 | 0.432 |
| NCI-H441 | 0.66 | 0.925 | 0.531 | 0.485 | 0.248 | 0.263 | 0.232 | 0.245 | 0.265 | 0.24 | 1.02 | 1.23 | 1.37 | 1.35 | 0.877 |  |  |  |  |  |
| NCI-H460 |  |  | 1.36 | 1.18 | 1.15 | 0.628 | 0.703 | 0.481 | 0.417 | 0.419 | 0.768 | 0.87 | 0.863 | 0.682 | 0.608 | 1.16 | 1.49 | 1.58 | 0.916 | 0.726 |
| NCI-H596 | 0.956 | 1.13 | 1.13 | 1.14 | 0.823 | 1.09 | 1.01 | 1.28 | 0.906 | 0.928 | 1.21 | 1.14 | 1.17 | 0.971 | 1.05 | 1.09 | 1.03 | 1.15 | 1.11 | 0.944 |
| NCI-H647 | 1.66 | 1.15 | 1.14 | 1.06 | 0.922 | 0.459 | 0.465 | 0.42 | 0.374 | 0.377 | 0.634 | 0.484 | 0.565 | 0.516 | 0.292 | 1.42 | 1.13 | 1.25 | 1.09 | 0.811 |
| NCI-H650 | 1.08 | 0.948 | 1.16 | 1.03 | 0.735 | 0.33 | 0.324 | 0.317 | 0.328 | 0.367 | 1.06 | 0.963 | 1.19 | 1.09 | 0.822 | 1.2 | 1.04 | 1.03 | 1.1 | 0.835 |
| NCI-H1703 | 0.403 | 0.422 | 0.272 | 0.322 | 0.318 |  |  |  |  |  | 0.123 | 0.143 | 0.115 | 0.112 | 0.124 | 0.986 | 1.28 | 1.44 | 1.02 | 1.03 |
| NCI-H1793 |  |  |  |  |  | 0.504 | 0.532 | 0.508 | 0.472 | 0.496 | 0.619 | 0.474 | 0.373 | 0.346 | 0.228 | 1.13 | 0.648 | 1.08 | 0.627 | 0.769 |
| NCI-H1944 |  |  |  |  |  | 0.452 | 0.475 | 0.402 | 0.406 | 0.428 | 0.455 | 0.603 | 0.571 | 0.454 | 0.719 | 0.714 | 0.937 | 0.77 | 0.669 | 0.756 |
| NCI-H2170 |  |  |  |  |  | 0.462 | 0.437 | 0.481 | 0.495 | 0.501 | 0.968 | 1.14 | 0.928 | 0.793 | 0.877 | 0.297 | 0.265 | 0.291 | 0.275 | 0.296 |
